Test results published in PubChem BioAssay AID256 (DTP/NCI, 2004).
Values joined by “and” are separate entries in the source; they are usually repeats but may differ in a detail not shown here. Equal entries are not always repeated. Toxic doses and inconclusive results are not listed.

Test system: CD2F1 mice, L1210 leukemia ip, survival T/C
Assay: NCI In Vivo Anticancer Drug Screen. Data for tumor model L1210 Leukemia (intraperitoneal) in CD2F1 (CDF1) mice
Details: higher = longer survival
Method in brief: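 Mice carrying a transplanted tumor received test compound or vehicle alone. The value is the measurement in the treated group divided by that in the vehicle-treated control group.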

[1] = endpoint: mean survival time, dose: 25.0 mg/kg/injection, schedule: Q01DX009 (ip), vehicle: saline with Tween-80
[2] = endpoint: mean survival time, dose: 25.0 mg/kg/injection, schedule: Q04DX003 (ip), vehicle: saline with Tween-80
[3] = endpoint: mean survival time, dose: 50.0 mg/kg/injection, schedule: Q01DX009 (ip), vehicle: saline with Tween-80
[4] = endpoint: mean survival time, dose: 100.0 mg/kg/injection, schedule: Q04DX003 (ip), vehicle: saline with Tween-80
[5] = endpoint: mean survival time, dose: 200.0 mg/kg/injection, schedule: Q04DX003 (ip), vehicle: saline with Tween-80
[6] = endpoint: mean survival time, dose: 400.0 mg/kg/injection, schedule: Q04DX003 (ip), vehicle: saline with Tween-80
[7] = endpoint: mean survival time, dose: 100.0 mg/kg/injection, schedule: Q01DX009 (ip), vehicle: saline with Tween-80
[8] = endpoint: mean survival time, dose: 200.0 mg/kg/injection, schedule: Q01DX009 (ip), vehicle: saline with Tween-80
[9] = endpoint: mean survival time, dose: 400.0 mg/kg/injection, schedule: Q01DX009 (ip), vehicle: saline with Tween-80
[10] = endpoint: mean survival time, dose: 25.0 mg/kg/injection, schedule: Q04DX003 (ip), vehicle: saline

## COc1cc(O)c2c(O)c3c(c4c2c1[C@]1(C4)C(C)=CCCC1(C)C)[C@H](O)[C@@]1(O)CC(=O)C(C(N)=O)=C(O)[C@@]1(O)C3=O
endpoint: mean survival time, dose: 1.56 mg/kg/injection, schedule: Q01DX009 (ip), vehicle: saline with Tween-80
  T/C: 96 % of control and 101 % of control
endpoint: mean survival time, dose: 3.13 mg/kg/injection, schedule: Q01DX009 (ip), vehicle: saline with Tween-80
  T/C: 98 % of control
endpoint: mean survival time, dose: 6.25 mg/kg/injection, schedule: Q01DX009 (ip), vehicle: saline with Tween-80
  T/C: 104 % of control
endpoint: mean survival time, dose: 12.5 mg/kg/injection, schedule: Q01DX009 (ip), vehicle: saline with Tween-80
  T/C: 114 % of control
endpoint: mean survival time, dose: 16.5 mg/kg/injection, schedule: Q04DX003 (ip), vehicle: saline with Tween-80
  T/C: 98 % of control
[1]
  T/C: 119 % of control
[2]
  T/C: 102 % of control
endpoint: mean survival time, dose: 37.5 mg/kg/injection, schedule: Q04DX003 (ip), vehicle: saline with Tween-80
  T/C: 111 % of control
[3]
  T/C: 90 % of control

## CCCSCC(C)C
[4]
  T/C: 102 % of control
[5]
  T/C: 93 % of control
[6]
  T/C: 108 % of control

## O=C1C(=O)c2cccnc2C(NC2CC3CCC2C3)=C1Cl (stereo not given)
endpoint: mean survival time, dose: 75.0 mg/kg/injection, schedule: Q04DX003 (ip), vehicle: saline
  T/C: 95 % of control
endpoint: mean survival time, dose: 150.0 mg/kg/injection, schedule: Q04DX003 (ip), vehicle: saline
  T/C: 98 % of control
endpoint: mean survival time, dose: 300.0 mg/kg/injection, schedule: Q04DX003 (ip), vehicle: saline
  T/C: 97 % of control

## O=C1NCC1c1ccccc1 (stereo not given)
endpoint: median survival time, dose: 25.0 mg/kg/injection, schedule: Q04DX003 (ip), vehicle: saline with Tween-80
  T/C: 90 % of control
endpoint: median survival time, dose: 50.0 mg/kg/injection, schedule: Q04DX003 (ip), vehicle: saline with Tween-80
  T/C: 90 % of control
endpoint: median survival time, dose: 100.0 mg/kg/injection, schedule: Q04DX003 (ip), vehicle: saline with Tween-80
  T/C: 100 % of control
endpoint: median survival time, dose: 200.0 mg/kg/injection, schedule: Q04DX003 (ip), vehicle: saline with Tween-80
  T/C: 90 % of control

## COc1cc2ccc3c(c2cc1OC)CCc1cn[nH]c1-3
endpoint: mean survival time, dose: 100.0 mg/kg/injection, schedule: Q04DX002 (ip), vehicle: saline with Tween-80
  T/C: 103 % of control
endpoint: mean survival time, dose: 200.0 mg/kg/injection, schedule: Q04DX002 (ip), vehicle: saline with Tween-80
  T/C: 107 % of control
endpoint: mean survival time, dose: 400.0 mg/kg/injection, schedule: Q04DX002 (ip), vehicle: saline with Tween-80
  T/C: 103 % of control

## COc1ccc(OC)c(NC(=O)Oc2ccc(-c3ccccc3)cc2Cl)c1
[7]
  T/C: 105 % of control
[8]
  T/C: 102 % of control
[9]
  T/C: 106 % of control

## CC1(C)N=C(N)N=C(N)N1c1ccc(OCCCNC(=O)Nc2cccc(S(=O)(=O)F)c2)c(Cl)c1
endpoint: mean survival time, dose: 100.0 mg/kg/injection, schedule: Q01DX009 (ip), vehicle: saline
  T/C: 116 % of control
endpoint: mean survival time, dose: 200.0 mg/kg/injection, schedule: Q01DX009 (ip), vehicle: saline
  T/C: 92 % of control

## C1=CC2CC2C1 (stereo not given)
endpoint: median survival time, dose: 50.0 mg/kg/injection, schedule: Q04DX002 (ip), vehicle: saline with Tween-80
  T/C: 88 % of control
endpoint: median survival time, dose: 100.0 mg/kg/injection, schedule: Q04DX002 (ip), vehicle: saline with Tween-80
  T/C: 88 % of control
endpoint: median survival time, dose: 200.0 mg/kg/injection, schedule: Q04DX002 (ip), vehicle: saline with Tween-80
  T/C: 88 % of control
endpoint: median survival time, dose: 400.0 mg/kg/injection, schedule: Q04DX002 (ip), vehicle: saline with Tween-80
  T/C: 88 % of control

## CCCOC(=O)c1cncn1C(C)c1ccccc1 (stereo not given)
endpoint: mean survival time, dose: 100.0 mg/kg/injection, schedule: Q01DX001 (ip), vehicle: saline
  T/C: 102 % of control

## CCOC(=O)c1cnc(SCc2ccccc2)nc1Nc1ccccc1
endpoint: mean survival time, dose: 100.0 mg/kg/injection, schedule: Q01DX001 (ip), vehicle: saline with Tween-80
  T/C: 93 % of control
endpoint: mean survival time, dose: 200.0 mg/kg/injection, schedule: Q01DX001 (ip), vehicle: saline with Tween-80
  T/C: 88 % of control
endpoint: mean survival time, dose: 400.0 mg/kg/injection, schedule: Q01DX001 (ip), vehicle: saline with Tween-80
  T/C: 88 % of control

## Cc1ccc(S(=O)(=O)N2CCC2)cc1
[7]
  T/C: 98 % of control
[4]
  T/C: 100 % of control
[8]
  T/C: 102 % of control
[5]
  T/C: 100 % of control
[9]
  T/C: 96 % of control
[6]
  T/C: 97 % of control

## Cc1cc([N+](=O)[O-])cc(Br)c1N
endpoint: mean survival time, dose: 44.0 mg/kg/injection, schedule: Q04DX003 (ip), vehicle: saline with Tween-80
  T/C: 93 % of control
endpoint: mean survival time, dose: 66.0 mg/kg/injection, schedule: Q04DX003 (ip), vehicle: saline with Tween-80
  T/C: 95 % of control
[4]
  T/C: 93 % of control
endpoint: mean survival time, dose: 150.0 mg/kg/injection, schedule: Q04DX003 (ip), vehicle: saline with Tween-80
  T/C: 95 % of control

## Cc1ccc(N=NN(C)C)cc1
endpoint: mean survival time, dose: 18.75 mg/kg/injection, schedule: Q01DX009 (ip), vehicle: Klucel (hydroxypropylcellulose) (HPC)
  T/C: 118 % of control
endpoint: mean survival time, dose: 75.0 mg/kg/injection, schedule: Q01DX009 (ip), vehicle: Klucel (hydroxypropylcellulose) (HPC)
  T/C: 152 % of control

## N#Cc1cn(C2OC(CO)C(O)C2O)c2ncn(N)c(=N)c12 (stereo not given)
endpoint: mean survival time, dose: 25.0 mg/kg/injection, schedule: Q01DX005 (ip), vehicle: water
  T/C: 110 % of control
endpoint: mean survival time, dose: 50.0 mg/kg/injection, schedule: Q01DX005 (ip), vehicle: water
  T/C: 111 % of control
endpoint: mean survival time, dose: 100.0 mg/kg/injection, schedule: Q01DX005 (ip), vehicle: water
  T/C: 118 % of control

## CCC(C)(C[NH-])C[NH-].[Cl][Pt+2][Cl]
endpoint: mean survival time, dose: 1.56 mg/kg/injection, schedule: Q04DX003 (ip), vehicle: saline
  T/C: 114 % of control
endpoint: mean survival time, dose: 3.12 mg/kg/injection, schedule: Q04DX003 (ip), vehicle: saline
  T/C: 118 % of control
endpoint: mean survival time, dose: 6.25 mg/kg/injection, schedule: Q04DX003 (ip), vehicle: saline
  T/C: 124 % of control
endpoint: mean survival time, dose: 12.5 mg/kg/injection, schedule: Q04DX003 (ip), vehicle: saline with Tween-80
  T/C: 285 % of control
[10]
  T/C: 312 % of control

## NC(=O)c1cc(N2CC2)c([N+](=O)[O-])cc1[N+](=O)[O-]
[1]
  T/C: 114 % of control
[2]
  T/C: 110 % of control
[3]
  T/C: 115 % of control
endpoint: mean survival time, dose: 50.0 mg/kg/injection, schedule: Q04DX003 (ip), vehicle: saline with Tween-80
  T/C: 97 % of control
[4]
  T/C: 106 % of control

## CC12CCC3C(CC=C4CC(SC(=N)N)CCC43C)C1CCC2=O (stereo not given)
endpoint: mean survival time, dose: 75.0 mg/kg/injection, schedule: Q01DX001 (ip), vehicle: steriod suspending solution
  T/C: 90 % of control
endpoint: mean survival time, dose: 150.0 mg/kg/injection, schedule: Q01DX001 (ip), vehicle: steriod suspending solution
  T/C: 98 % of control
endpoint: mean survival time, dose: 300.0 mg/kg/injection, schedule: Q01DX001 (ip), vehicle: steriod suspending solution
  T/C: 98 % of control

## C[N+]12CCN(CC1)CC2.[Cl][Pt]([Cl])[Cl]
endpoint: mean survival time, dose: 12.5 mg/kg/injection, schedule: Q04DX003 (ip), vehicle: saline
  T/C: 101 % of control
[10]
  T/C: 98 % of control
endpoint: mean survival time, dose: 50.0 mg/kg/injection, schedule: Q04DX003 (ip), vehicle: saline
  T/C: 106 % of control
endpoint: mean survival time, dose: 100.0 mg/kg/injection, schedule: Q04DX003 (ip), vehicle: saline
  T/C: 113 % of control
endpoint: mean survival time, dose: 200.0 mg/kg/injection, schedule: Q04DX003 (ip), vehicle: saline
  T/C: 104 % of control

## c1ccc2c(c1)ncc1cc3c(cc12)[nH]c1ccccc13
endpoint: mean survival time, dose: 100.0 mg/kg/injection, schedule: Q01DX001 (ip), vehicle: other
  T/C: 96 % of control
endpoint: mean survival time, dose: 200.0 mg/kg/injection, schedule: Q01DX001 (ip), vehicle: other
  T/C: 101 % of control
endpoint: mean survival time, dose: 400.0 mg/kg/injection, schedule: Q01DX001 (ip), vehicle: other
  T/C: 104 % of control

## CCN1/C(=C/C(C)=C/c2sc3ccc4ccccc4c3[n+]2CC)Sc2ccc3ccccc3c21
endpoint: mean survival time, dose: 0.02 mg/kg/injection, schedule: Q01DX009 (ip), vehicle: Klucel (hydroxypropylcellulose) (HPC)
  T/C: 101 % of control
endpoint: mean survival time, dose: 0.03 mg/kg/injection, schedule: Q01DX009 (ip), vehicle: Klucel (hydroxypropylcellulose) (HPC)
  T/C: 100 % of control
endpoint: mean survival time, dose: 0.05 mg/kg/injection, schedule: Q01DX009 (ip), vehicle: Klucel (hydroxypropylcellulose) (HPC)
  T/C: 113 % of control and 97 % of control
endpoint: mean survival time, dose: 0.1 mg/kg/injection, schedule: Q01DX009 (ip), vehicle: Klucel (hydroxypropylcellulose) (HPC)
  T/C: 100 % of control and 110 % of control
endpoint: mean survival time, dose: 0.2 mg/kg/injection, schedule: Q01DX009 (ip), vehicle: Klucel (hydroxypropylcellulose) (HPC)
  T/C: 103 % of control and 104 % of control
endpoint: mean survival time, dose: 0.4 mg/kg/injection, schedule: Q01DX009 (ip), vehicle: Klucel (hydroxypropylcellulose) (HPC)
  T/C: 105 % of control and 107 % of control
endpoint: mean survival time, dose: 0.8 mg/kg/injection, schedule: Q01DX009 (ip), vehicle: Klucel (hydroxypropylcellulose) (HPC)
  T/C: 119 % of control and 104 % of control

## CCCS(=O)(=O)Nc1ccc(Nc2c3ccccc3nc3ccccc23)c(OC)c1
endpoint: mean survival time, dose: 3.75 mg/kg/injection, schedule: Q01DX009 (ip), vehicle: saline
  T/C: 122 % of control

## Clc1ccc2c(c1)Nc1cc(Cl)ccc1C=C2
[4]
  T/C: 98 % of control
[5]
  T/C: 93 % of control
[6]
  T/C: 87 % of control

## N/N=C(\NN)c1ccccc1
[4]
  T/C: 92 % of control
[5]
  T/C: 87 % of control
[6]
  T/C: 92 % of control
